Source: patent US9181239B2, “Pyridopyrimidinone inhibitors of kinases” (AbbVie Inc., priority 2011, dated 2015)

Biological target: T1, Wee1 kinase (Homo sapiens, UniProt P30291)
T1 construct: purchased Carnabio 05-177
Assay: Wee1 time-resolved fluorescence equilibrium binding assay (probe displacement)
Conditions: GST-tagged-Wee1 kinase 2 nM, fluorescent probe 300 nM, 1 hour incubation; read-out: Wee-1 binding (Ki nM)
Experimental: Wee1 kinase was assayed using a time-resolved fluorescence equilibrium binding assay monitoring displacement of a rapidly reversible Oregon Green-labeled ATP-competitive kinase probe (N-(2-(2-(2-(4-(4-(5-chloro-4-(2-(1-hydroxycyclobutyl)thiazol-5-yl)-1H-pyrrolo[2,3-b]pyridin-2-yl)phenyl)piperazin-1-yl)ethoxy)ethoxy)ethyl)-2′,7′-difluoro-3′,6′-dihydroxy-3-oxo-3H-spiro[isobenzofuran-1,9′-xanthene]-5-carboxamide) by competitive Wee1 inhibitors.

T1 sequence (P30291 whole entry): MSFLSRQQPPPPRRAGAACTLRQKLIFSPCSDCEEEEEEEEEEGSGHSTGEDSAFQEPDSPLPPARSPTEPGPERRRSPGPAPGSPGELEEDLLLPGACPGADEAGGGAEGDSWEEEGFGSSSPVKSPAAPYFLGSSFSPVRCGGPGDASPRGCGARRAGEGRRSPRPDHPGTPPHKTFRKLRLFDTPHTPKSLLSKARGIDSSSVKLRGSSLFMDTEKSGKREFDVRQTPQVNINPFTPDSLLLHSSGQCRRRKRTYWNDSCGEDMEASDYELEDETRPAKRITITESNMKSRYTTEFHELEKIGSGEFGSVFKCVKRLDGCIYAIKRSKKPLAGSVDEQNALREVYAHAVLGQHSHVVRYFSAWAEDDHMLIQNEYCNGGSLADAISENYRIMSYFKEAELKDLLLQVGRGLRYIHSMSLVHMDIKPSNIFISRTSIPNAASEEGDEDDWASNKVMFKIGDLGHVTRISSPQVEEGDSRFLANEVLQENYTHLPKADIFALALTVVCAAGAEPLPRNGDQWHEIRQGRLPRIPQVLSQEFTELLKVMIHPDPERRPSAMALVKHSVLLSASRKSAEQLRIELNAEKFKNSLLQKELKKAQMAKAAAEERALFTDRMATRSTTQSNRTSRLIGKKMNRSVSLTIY

Row | Ki | SMILES
1 | 0.7 nM | Cn1cc(-c2c(Cl)cccc2Cl)c(=O)c2cnc(Nc3ccc(N[C@@H]4CCNC4)cc3)nc21 [Example 63, 6-(2,6-dichlorophenyl)-8-methyl-2-({4-[(3R)-pyrrolidin-3-ylamino]phenyl}amino)pyrido[2,3-d]pyrimidin-5(8H)-one]
2 | 0.4 nM | Cn1cc(-c2c(Cl)cccc2Cl)c(=O)c2cnc(Nc3ccc(N[C@H]4CCNC4)cc3)nc21 [Example 64, 6-(2,6-dichlorophenyl)-8-methyl-2-({4-[(3S)-pyrrolidin-3-ylamino]phenyl}amino)pyrido[2,3-d]pyrimidin-5(8H)-one]
3 | 0.3 nM | Cn1cc(-c2c(Cl)cccc2Cl)c(=O)c2cnc(Nc3ccc4c(c3)CNC4(C)C)nc21 [Example 65, 6-(2,6-dichlorophenyl)-2-[(1,1-dimethyl-2,3-dihydro-1H-isoindol-5-yl)amino]-8-methylpyrido[2,3-d]pyrimidin-5(8H)-one]
4 | 0.4 nM | Cn1cc(-c2c(Cl)cccc2Cl)c(=O)c2cnc(Nc3ccc(NC4CCNCC4)cc3)nc21 [Example 66, 6-(2,6-dichlorophenyl)-8-methyl-2-{[4-(piperidin-4-ylamino)phenyl]amino}pyrido[2,3-d]pyrimidin-5(8H)-one]
5 | 0.5 nM | CN1CCC(Nc2ccc(Nc3ncc4c(=O)c(-c5c(Cl)cccc5Cl)cn(C)c4n3)cc2)C1 (centres unmarked) [Example 67, 6-(2,6-dichlorophenyl)-8-methyl-2-({4-[(1-methylpyrrolidin-3-yl)amino]phenyl}amino)pyrido[2,3-d]pyrimidin-5(8H)-one]
6 | 0.4 nM | CN1CCC(Oc2ccc(Nc3ncc4c(=O)c(-c5c(Cl)cccc5Cl)cn(C)c4n3)cc2)CC1 [Example 68, 6-(2,6-dichlorophenyl)-8-methyl-2-({4-[(1-methylpiperidin-4-yl)oxy]phenyl}amino)pyrido[2,3-d]pyrimidin-5(8H)-one]
7 | 3 nM | CN1CCC(Nc2ccc(Nc3ncc4c(=O)c(-c5c(F)cccc5Cl)cn(C)c4n3)cc2)CC1 [Example 69, 6-(2-chloro-6-fluorophenyl)-8-methyl-2-({4-[(1-methylpiperidin-4-yl)amino]phenyl}amino)pyrido[2,3-d]pyrimidin-5(8H)-one]
8 | 0.2 nM | CN1Cc2cc(Nc3ncc4c(=O)c(-c5c(F)cccc5Cl)cn(C)c4n3)ccc2C1(C)C [Example 70, 6-(2-chloro-6-fluorophenyl)-8-methyl-2-[(1,1,2-trimethyl-2,3-dihydro-1H-isoindol-5-yl)amino]pyrido[2,3-d]pyrimidin-5(8H)-one]
9 | 0.7 nM | COC(=O)c1cc(Nc2ncc3c(=O)c(-c4c(Cl)cccc4Cl)cn(C)c3n2)ccc1N1CCN(C)CC1 [Example 71, methyl 5-{[6-(2,6-dichlorophenyl)-8-methyl-5-oxo-5,8-dihydropyrido[2,3-d]pyrimidin-2-yl]amino}-2-(4-methylpiperazin-1-yl)benzoate]
10 | 0.5 nM | CN(C)C1CCN(C2Cc3ccc(Nc4ncc5c(=O)c(-c6c(Cl)cccc6Cl)cn(C)c5n4)cc3C2)CC1 (centres unmarked) [Example 72, 6-(2,6-dichlorophenyl)-2-({2-[4-(dimethylamino)piperidin-1-yl]-2,3-dihydro-1H-inden-5-yl}amino)-8-methylpyrido[2,3-d]pyrimidin-5(8H)-one]
11 | 2.8 nM | Cn1cc(-c2c(F)cccc2Cl)c(=O)c2cnc(Nc3ccc(NC4CCNCC4)cc3)nc21 [Example 73, 6-(2-chloro-6-fluorophenyl)-8-methyl-2-{[4-(piperidin-4-ylamino)phenyl]amino}pyrido[2,3-d]pyrimidin-5(8H)-one]
12 | 1.2 nM | Cn1cc(-c2c(F)cccc2Cl)c(=O)c2cnc(Nc3ccc4c(c3)CNCC4)nc21 [Example 74, 6-(2-chloro-6-fluorophenyl)-8-methyl-2-(1,2,3,4-tetrahydroisoquinolin-7-ylamino)pyrido[2,3-d]pyrimidin-5(8H)-one]
13 | 1.3 nM | Cn1cc(-c2c(F)cccc2Cl)c(=O)c2cnc(Nc3ccc4c(c3)CCNC4)nc21 [Example 75, 6-(2-chloro-6-fluorophenyl)-8-methyl-2-(1,2,3,4-tetrahydroisoquinolin-6-ylamino)pyrido[2,3-d]pyrimidin-5(8H)-one]
14 | 0.7 nM | Cn1cc(-c2c(Cl)cccc2Cl)c(=O)c2cnc(Nc3ccc(N[C@H]4CC[C@H](N(C)C)CC4)cc3)nc21 [Example 76, 6-(2,6-dichlorophenyl)-2-[(4-{[trans-4-(dimethylamino)cyclohexyl]amino}phenyl)amino]-8-methylpyrido[2,3-d]pyrimidin-5(8H)-one]
15 | 0.5 nM | Cn1cc(-c2c(Cl)cccc2Cl)c(=O)c2cnc(Nc3ccc(N[C@H]4CC[C@@H](N(C)C)CC4)cc3)nc21 [Example 77, 6-(2,6-dichlorophenyl)-2-[(4-{[cis-4-(dimethylamino)cyclohexyl]amino}phenyl)amino]-8-methylpyrido[2,3-d]pyrimidin-5(8H)-one]
16 | 1.2 nM | CN(C)CCCN1CCN(c2ccc(Nc3ncc4c(=O)c(-c5c(Cl)cccc5Cl)cn(C)c4n3)cc2)CC1 [Example 78, 6-(2,6-dichlorophenyl)-2-[(4-{4-[3-(dimethylamino)propyl]piperazin-1-yl}phenyl)amino]-8-methylpyrido[2,3-d]pyrimidin-5(8H)-one]
17 | 0.8 nM | CN(C)CCN1CCN(c2ccc(Nc3ncc4c(=O)c(-c5c(Cl)cccc5Cl)cn(C)c4n3)cc2)CC1 [Example 79, 6-(2,6-dichlorophenyl)-2-[(4-{4-[2-(dimethylamino)ethyl]piperazin-1-yl}phenyl)amino]-8-methylpyrido[2,3-d]pyrimidin-5(8H)-one]
